# Tested on: VM46 cells
# Experiment: Cell colony formation assay
# Type: cell-based
# Conditions: drug concentration producing 50% inhibition of colony formation, incubated with drugs for 72 hours at 37° C., colonies counted after 8 days
# Method: This example provides directions for growing cells and testing compounds of the invention for their effect on the growth of the cells. All cells are purchased from DCTDC Tumor Repository, NCI, NIH.
# Cell Colony Formation Assay
# Five hundred cells (VM46) were plated in 60 mm Petri dishes containing 2.7 ml of medium (modified McCoy's 5a medium containing 10% bovine calf serum and 100 units/ml penicillin and […] streptomycin). The cells were incubated in a CO2 incubator at 37° C. for 5 hours for attachment to the bottom of Petri dishes. Drugs were made fresh in medium at ten times the final concentration, and then 0.3 ml of this stock solution was added to the 2.7 ml of medium in the dish. The cells were then incubated with drugs for 72 hours at 37° C. At the end of the incubation the drug-containing media were decanted, the dishes were rinsed with 4 ml of Hank's Balance Salt Solution (HBSS), 5 ml of fresh medium is added, and the dishes are returned to the incubator for colony formation. The cell colonies were counted using colony counter after incubation for 8 days for VM46 cells.
# Values of ID50 (the drug concentration producing 50% inhibition of colony formation) may be determined for each tested compound.
row,SMILES,Values of ID 50 [nM]
1,"CCC1(OC(=O)COc2ccc(F)cc2)CC(=O)OCc2c1cc1n(c2=O)Cc2cc3ccccc3nc2-1 (centres unmarked) [Example 1160, Homo-camptothecin-20-O-ester of 4-Fluorophenoxyacetic Acid]",1.5
2,"CCC1(OC(=O)COc2cccc(Cl)c2Cl)CC(=O)OCc2c1cc1n(c2=O)Cc2cc3ccccc3nc2-1 (centres unmarked) [Example 1158, Homocamptothecin-20-O Ester of 2,3-Dichlorophenoxy Acetic Acid]",1.5
3,"CC[C@@]1(O)CC(=O)OCc2c1cc1n(c2=O)Cc2cc3ccccc3nc2-1 (racemic) [homo-campothecin, homo-camptothecin]",4
4,"CCC1(OC(=O)COc2ccc(OC(F)(F)F)cc2)CC(=O)OCc2c1cc1n(c2=O)Cc2cc3ccccc3nc2-1 (centres unmarked) [Example 1164, Homo-camptothecin-20-O-ester of 4-Trifluoromethoxyphenoxyacetic Acid]",3.5
5,"CCC1(OC(=O)COc2ccccc2Cl)CC(=O)OCc2c1cc1n(c2=O)Cc2cc3ccccc3nc2-1 (centres unmarked) [Example 021229, Homocamptothecin-20-O Ester of 2-Chlorophenoxy Acetic Acid]",2

# — patent US20040034050A1, “Homo-camptothecin derivatives” (priority 2002, published 2004)
